Laboratory results from US6964959B2, “Use of a methylol-containing compound to treat tumors” (Carter Wallace, Inc., priority 1999, dated 2005).
pIC50: −log10 of the molar value.

Experiments:
human tumor cell lines = experiment: Tumor cell killing and apoptosis in culture; type: cell-based
PARP = experiment: Western-blot analysis of PARP cleavage, NIH-3T3 cells; type: cell-based, murine; conditions: 24 h exposure to 50 or 100 μM
Procedure: Two×10^6 cells were seeded in 150 cm^2 tissue culture flasks. […] After an additional twenty-four hours, cells were harvested, cell number determined, and aliquots derived from equal cell numbers generated from each exposure condition. Total proteins from these whole cell lysates were separated by SDS-PAGE and transferred to nitrocellulose filters. Filters were then immunoblotted to detect intact PARP protein and cleavage fragments by using the clone C-2-10 mouse monoclonal anti-PARP antibody (Zymed Laboratories, San Francisco, Calif.). The resulting protein-antibody complexes were visualized by chemiluminescence techniques.
Western-blot analysis was used to assess of PARP cleavage. Two×10^6 cells were seeded into separate 75 cm^2 tissue culture flasks containing 20 ml of tissue culture media plus serum. […] Twenty-four hours after the addition of Taurolidine, cells were harvested, cell number determined, and aliquots containing an equal cell number were generated from each exposure condition. Total proteins from whole cell lysates generated from these aliquots were separated by SDS-PAGE and electrotransferred to nitrocellulose filters. Filters were then processed to detect intact PARP protein and cleavage fragments by using the clone C-2-10 mouse monoclonal anti-PARP antibody (Zymed Laboratories, San Francisco, Calif.). […]

[1] = tested on: MDR-transfected glioblastoma cells; experiment: Cytotoxicity in MDR-transfected glioblastoma cells; conditions: dose of 50 μM
Source text: The neoplastic cell lines used in the survey were standard tumor cell lines, e.g., PA1 human ovarian cell line, SKOV3 human ovarian cell line, HT29 human colon tumor cell line, DU145 human prostate tumor cell line, U251 human glioblastoma cell line, U251-MDR human glioblastoma cell line transfected with DNA encoding MDR, T98G human glioblastoma cell line, SP-1 human leukemia cell line, and Daudi human leukemia cell line.
Glioblastoma cells were transfected with a gene encoding multiple drug resistance (MDR).

[2] = tested on: human and murine tumor cell lines; experiment: Growth inhibition, panel of selected human and murine tumor cell lines; type: cell-based; conditions: 72 h; 3 d exposure; panel of 12 selected human and murine tumor cell lines; read-out: IC50s, growth inhibition across all cell lines evaluated
Procedure: One ml of this cell suspension was added to each well of a 12 well cell culture plate that contained 3 ml of appropriate media plus serum. […] Control wells received 40 μl of 5% Kollidon 17PF alone. Seventy-two hours later, all cells were harvested by trypsinization and cell number determined electronically using a Coulter Model Z1 particle counter (Coulter Corp., Miami, Fla.) to assess cell growth inhibition. Each experiment was performed in duplicate and repeated a minimum of three times.
Cells were seeded at a density of 1-5×10^4 cells in each well of a 6 well tissue culture flask. […] After three days, cells were harvested by trypsinization and cell number determined electronically. Cell growth inhibition was determined by comparison to non-Taurolidine exposed control cultures. The IC50 was calculated as the concentration required to inhibit cell number by 50%.

[3] = tested on: human ovarian tumor cells; experiment: Growth of established human ovarian tumor cell colonies; type: cell-based; conditions: 24-hour exposure to 50 μM; discrete colonies
Procedure: Parallel studies were carried out to assess whether disruption of cell adhesion played a role in the cytotoxic activity.

O=S1(=O)CCN(CN2CCS(=O)(=O)NC2)CN1 [Taurolidine, Bis-(1,1-dioxoperhydro-1,2,4-thiadiazinyl-4)methane]
incubation time after which apoptosis of tumor cells is induced (human tumor cell lines; in culture): as little as one hour | number of different human tumor cell lines killed (human tumor cell lines; ovarian, breast, brain, colon, prostate, urinary bladder, lung, melanomas, mesotheliomas, laryngeal carcinomas, leukemias, lymphomas): at least 28 | PARP cleavage (PARP): little evidence of this proteolytic event | PARP cleavage (PARP; listed as taurolidine): PARP cleavage was not evident | cytotoxicity [1]: Significant cytotoxicity | pIC50 [2]: 4.47 to 5.02 | cytotoxic effect against the growth of established tumor cells [3]: significant cytotoxic effect
